US8663669B2, “Pesticide treatment of soils or substrates with sulphur compounds” (Arkema France, priority 2002, dated 2014)

How the values were obtained:
Sclerotinia sclerotiorum = assay: Fungicidal efficacy by gassing, sclerotia; format: cell-based; set-up: Vitality score Nm (over 19 days): scale not given here; Reduction in viability RV / Reduction in vitality score RNm: unit not given here; conditions: for Reduction in viability RV / Reduction in vitality score RNm: compared with the control
Experimental: These four organisms are the following:
Sclerotinia sclerotiorum: polyphagous fungus which attacks mainly melon crops.
• Sclerotinia sclerotiorum: sclerotia • Sclerotium rolfsii: sclerotia • Rhizoctonia solani: colonized barley grains (mycelium and sclerotia) • Phytophthora cactorum: colonized millet grains (mycelium, sporangia and oospores) Preparation of the Fungi (24 h Before the Gassing Operation) 1. Preparation of the sclerotia of Sclerotinia sclerotiorum and of Sclerotium rolfsii: The fungi are cultured on malt agar medium until the sclerotia are obtained. The sclerotia are collected in a sterile manner and stored dry in empty Petri dishes until they are used. The sclerotia used for the trial are over 3 months old and are perfectly dormant. 2. Preparation of Phytophthora cactorum and of Rhizoctonia solani: The millet and barley used for the multiplication of the two fungi are moistened with ultrapure water by immersing for 24 hours. The grains are then slightly drained and then distributed into flasks and autoclaved (3 autoclavings at 110° C. for 20 minutes, 3 times at 24 hour intervals). Fragments of fungal culture are introduced into the flasks which are then incubated at 22° C.±2° C. (white light 18 h) until homogeneous colonization is obtained. The grains are then removed from the flasks in a sterile manner, dried in the sterile stream of a safety cabinet and then stored in the dry state until they are used. Conditions for Gassing and for Desorption
All the batches of fungi to be treated are placed for a few hours at the trial temperature (20° C.). Between 35 and 300 units of fungi or “propagules” (grains or sclerotia) are subjected to gassing during each trial.
Each fumigation chamber comprising to one or more species of fungi corresponds to a glass round-bottomed flask which is impervious to the gas and has a volume of 11 litres. Each round-bottomed flask is equipped with branch connections, one at the bottom for introducing the liquid DMDS, one at the top for collecting the air sample with a syringe.
Before introducing the gas, a partial vacuum (−500 mbar) is established in the round-bottomed flask with a vacuum pump. This makes it possible, on the one hand, to avoid the phenomenon of excess pressure due to the expansibility of DMDS in the round-bottomed flask and, on the other hand, to promote better homogeneity of the air-gas mixture in the first few seconds which follow injection. The DMDS (weighed accurately to the mg) is injected with a syringe, in liquid form, through the bottom branch connection, that is to say under the screen placed at half height of the round-bottomed flask and supporting the batches of fungi. After introducing the product, the internal pressure of the round-bottomed flask is re-established at atmospheric pressure. A magnetic stirrer operates during the entire duration of the treatment in order to properly homogenize the air-gas mixture.
At the end of the gassing, the cover for the round-bottomed flask is removed. One minute after this operation, the batches of fungi gassed are taken out and left in the open air for 15 minutes for desorption of the DMDS. They are then transferred into a Petri dish, the latter remaining open for 5 minutes to allow perfect desorption of the gas.
The mean concentration (C in g/m^3) of DMDS in the fumigation chamber after homogenization of the gas in the chamber air is measured by GC with an FID detector and, taking into account the duration of exposure (T in hours), the product CT (g·h/m^3) is calculated which, in the field of fumigation, is the key parameter to be considered, since the biological efficacy of a gas towards a given pathogenic agent is only effective if the latter was exposed to a certain mean concentration C for a certain duration of exposure T, that is to say to a certain value of the product CT, a value (or dose) which can be reached in different ways: low concentrations and long duration of exposure or conversely. […]

[1] = test system: young tomato plants (13 cm, 3 leaves, JUMBO hybrid); assay: Phytotoxicity on young tomato plants; format: in vivo
Experimental: For both types of crop, 4 treatments were performed on 20 plants: • untreated control • 360 kg/ha of DMDS • 540 kg/ha of DMDS • 720 kg/ha of DMDS
Five days after the treatment, the young plants are transplanted into pots 20 cm in diameter and 35 cm in height.
The observations relating to the number of leaves per plant and the visual state of the plants are carried out 15 and 41 days after the transplantation: […]

a large number of fungi = conditions: as reported in U.S. Pat. No. 2,917,429; cited from earlier work
[2] = CT 1 050 g·h/m^3 (C 15.91 g/m^3, T 66 h)
[3] = CT 1 402 g·h/m^3 (C 21.24 g/m^3, T 66 h)
[4] = CT 1 450 g·h/m^3 (C 30.96 g/m^3, T 48 h)
[5] = CT 1 899 g·h/m^3 (C 28.77 g/m^3, T 66 h)
[6] = CT 1 981 g·h/m^3 (C 30.02 g/m^3, T 66 h)
[7] = CT 2 460 g·h/m^3 (C 51.25 g/m^3, T 48 h)
[8] = CT 2 471 g·h/m^3 (C 37.44 g/m^3, T 66 h)
[9] = CT 2 837 g·h/m^3 (C 42.98 g/m^3, T 66 h)
[10] = CT 2 974 g·h/m^3 (C 45.06 g/m^3, T 66 h)
[11] = CT 3 169 g·h/m^3 (C 48.02 g/m^3, T 66 h)
[12] = CT 3 467 g·h/m^3 (C 52.53 g/m^3, T 66 h), called an abnormal point
[13] = CT 419 g·h/m^3 (C 17.46 g/m^3, T 24 h)
[14] = CT 625 g·h/m^3 (C 26.04 g/m^3, T 24 h)
[15] = CT 703 g·h/m^3 (C 29.29 g/m^3, T 24 h)
[16] = CT 907 g·h/m^3 (C 37.79 g/m^3, T 24 h)

SMILES: CSSC [DMDS, dimethyl disulphide]
- Viability V (Sclerotinia sclerotiorum; [2]): 41.8%
- Vitality score Nm (over 19 days) (Sclerotinia sclerotiorum; [2]): 5.1
- Reduction in viability RV (Sclerotinia sclerotiorum; [2]): 56.1
- Reduction in vitality score RNm (Sclerotinia sclerotiorum; [2]): 63.6
- Viability V (Sclerotinia sclerotiorum; [3]): 46.8%
- Vitality score Nm (over 19 days) (Sclerotinia sclerotiorum; [3]): 1.3
- Reduction in viability RV (Sclerotinia sclerotiorum; [3]): 50.9
- Reduction in vitality score RNm (Sclerotinia sclerotiorum; [3]): 90.6
- Viability V (Sclerotinia sclerotiorum; [4]): 29.8%
- Vitality score Nm (over 19 days) (Sclerotinia sclerotiorum; [4]): 1.0
- Reduction in viability RV (Sclerotinia sclerotiorum; [4]): 65.8
- Reduction in vitality score RNm (Sclerotinia sclerotiorum; [4]): 92.1
- Viability V (Sclerotinia sclerotiorum; [5]): 29.6%
- Vitality score Nm (over 19 days) (Sclerotinia sclerotiorum; [5]): 3.6
- Reduction in viability RV (Sclerotinia sclerotiorum; [5]): 68.9
- Reduction in vitality score RNm (Sclerotinia sclerotiorum; [5]): 74.8
- Viability V (Sclerotinia sclerotiorum; [6]): 20.3%
- Vitality score Nm (over 19 days) (Sclerotinia sclerotiorum; [6]): 2.7
- Reduction in viability RV (Sclerotinia sclerotiorum; [6]): 78.7
- Reduction in vitality score RNm (Sclerotinia sclerotiorum; [6]): 81.2
- Viability V (Sclerotinia sclerotiorum; [7]): 14.6%
- Vitality score Nm (over 19 days) (Sclerotinia sclerotiorum; [7]): 0.7
- Reduction in viability RV (Sclerotinia sclerotiorum; [7]): 83.2
- Reduction in vitality score RNm (Sclerotinia sclerotiorum; [7]): 94.9
- Viability V (Sclerotinia sclerotiorum; [8]): 32.9%
- Vitality score Nm (over 19 days) (Sclerotinia sclerotiorum; [8]): 4.6
- Reduction in viability RV (Sclerotinia sclerotiorum; [8]): 67.1
- Reduction in vitality score RNm (Sclerotinia sclerotiorum; [8]): 70.5
- Viability V (Sclerotinia sclerotiorum; [9]): 14.1%
- Vitality score Nm (over 19 days) (Sclerotinia sclerotiorum; [9]): 1.8
- Reduction in viability RV (Sclerotinia sclerotiorum; [9]): 85.2
- Reduction in vitality score RNm (Sclerotinia sclerotiorum; [9]): 87.5
- Viability V (Sclerotinia sclerotiorum; [10]): 11.2%
- Vitality score Nm (over 19 days) (Sclerotinia sclerotiorum; [10]): 1.6
- Reduction in viability RV (Sclerotinia sclerotiorum; [10]): 88.8
- Reduction in vitality score RNm (Sclerotinia sclerotiorum; [10]): 89.9
- Viability V (Sclerotinia sclerotiorum; [11]): 0%
- Vitality score Nm (over 19 days) (Sclerotinia sclerotiorum; [11]): 0
- Reduction in viability RV (Sclerotinia sclerotiorum; [11]): 100
- Reduction in vitality score RNm (Sclerotinia sclerotiorum; [11]): 100
- Viability V (Sclerotinia sclerotiorum; [12]): 32.3%
- Vitality score Nm (over 19 days) (Sclerotinia sclerotiorum; [12]): 3.3
- Reduction in viability RV (Sclerotinia sclerotiorum; [12]): 67.7
- Reduction in vitality score RNm (Sclerotinia sclerotiorum; [12]): 79.0
- Viability V (Sclerotinia sclerotiorum; [13]): 89.7%
- Vitality score Nm (over 19 days) (Sclerotinia sclerotiorum; [13]): 13.3
- Reduction in viability RV (Sclerotinia sclerotiorum; [13]): −3.0
- Reduction in vitality score RNm (Sclerotinia sclerotiorum; [13]): −3.6
- Viability V (Sclerotinia sclerotiorum; [14]): 87.8%
- Vitality score Nm (over 19 days) (Sclerotinia sclerotiorum; [14]): 12.8
- Reduction in viability RV (Sclerotinia sclerotiorum; [14]): −0.8
- Reduction in vitality score RNm (Sclerotinia sclerotiorum; [14]): 0.1
- Viability V (Sclerotinia sclerotiorum; [15]): 85.4%
- Vitality score Nm (over 19 days) (Sclerotinia sclerotiorum; [15]): 12.6
- Reduction in viability RV (Sclerotinia sclerotiorum; [15]): 2.0
- Reduction in vitality score RNm (Sclerotinia sclerotiorum; [15]): 2.2
- Viability V (Sclerotinia sclerotiorum; [16]): 81.6%
- Vitality score Nm (over 19 days) (Sclerotinia sclerotiorum; [16]): 12.0
- Reduction in viability RV (Sclerotinia sclerotiorum; [16]): 6.3
- Reduction in vitality score RNm (Sclerotinia sclerotiorum; [16]): 6.6
- Visual symptom of phytotoxicity ([1]; 360, 540, 720 kg/ha, 15 and 41 days after transplantation): no visual symptom of phytotoxicity
- Average number of leaves per plant ([1]; 360 kg/ha DMDS (formulation A), after 15 days): 5.3
- Average number of leaves per plant ([1]; 360 kg/ha DMDS (formulation A), after 41 days): 9.6
- Average number of leaves per plant ([1]; 540 kg/ha DMDS (formulation A), after 15 days): 5.3
- Average number of leaves per plant ([1]; 540 kg/ha DMDS (formulation A), after 41 days): 9.4
- Average number of leaves per plant ([1]; 720 kg/ha DMDS (formulation A), after 15 days): 5.7
- Average number of leaves per plant ([1]; 720 kg/ha DMDS (formulation A), after 41 days): 9.8
- Difference in number of leaves between untreated control and treated plants ([1]; regardless of the concentration tested (360-720 kg/ha)): no significant difference
- Activity on a large number of fungi (a large number of fungi): zero activity
